This is an account of results in patent US20190255019A1, “NOVEL DOSAGE REGIMEN” (Biogen MA Inc., priority 2016, published 2019).

Read-outs that look alike come from different tables or passages of the source.

For series [1] the following is noted: cited from earlier work.
The target in the next series is Human Nav1.7 (Homo sapiens, UniProt Q15858). The experiment in a line: In vitro assay quantifying block of hNav1.7 at mid point inactivation, read at free plasma Cmax. To be noted: at free plasma Cmax of 200 mg bid. The series is classed as biochemical. An excerpt:
In Table 1, free plasma CMax exposures of Example 1 obtained from modelling different dosing regimens were used to quantify the resulting amount of block at the primary target hNaV1.7. […] Doses of marketed drugs used in trigeminal neuralgia were compared using the same paradigm.

The subject of the next series is trigeminal neuralgia. To be noted: 200 mg bid, TN; cited from earlier work.

Sequence of Human Nav1.7 (Q15858 whole entry): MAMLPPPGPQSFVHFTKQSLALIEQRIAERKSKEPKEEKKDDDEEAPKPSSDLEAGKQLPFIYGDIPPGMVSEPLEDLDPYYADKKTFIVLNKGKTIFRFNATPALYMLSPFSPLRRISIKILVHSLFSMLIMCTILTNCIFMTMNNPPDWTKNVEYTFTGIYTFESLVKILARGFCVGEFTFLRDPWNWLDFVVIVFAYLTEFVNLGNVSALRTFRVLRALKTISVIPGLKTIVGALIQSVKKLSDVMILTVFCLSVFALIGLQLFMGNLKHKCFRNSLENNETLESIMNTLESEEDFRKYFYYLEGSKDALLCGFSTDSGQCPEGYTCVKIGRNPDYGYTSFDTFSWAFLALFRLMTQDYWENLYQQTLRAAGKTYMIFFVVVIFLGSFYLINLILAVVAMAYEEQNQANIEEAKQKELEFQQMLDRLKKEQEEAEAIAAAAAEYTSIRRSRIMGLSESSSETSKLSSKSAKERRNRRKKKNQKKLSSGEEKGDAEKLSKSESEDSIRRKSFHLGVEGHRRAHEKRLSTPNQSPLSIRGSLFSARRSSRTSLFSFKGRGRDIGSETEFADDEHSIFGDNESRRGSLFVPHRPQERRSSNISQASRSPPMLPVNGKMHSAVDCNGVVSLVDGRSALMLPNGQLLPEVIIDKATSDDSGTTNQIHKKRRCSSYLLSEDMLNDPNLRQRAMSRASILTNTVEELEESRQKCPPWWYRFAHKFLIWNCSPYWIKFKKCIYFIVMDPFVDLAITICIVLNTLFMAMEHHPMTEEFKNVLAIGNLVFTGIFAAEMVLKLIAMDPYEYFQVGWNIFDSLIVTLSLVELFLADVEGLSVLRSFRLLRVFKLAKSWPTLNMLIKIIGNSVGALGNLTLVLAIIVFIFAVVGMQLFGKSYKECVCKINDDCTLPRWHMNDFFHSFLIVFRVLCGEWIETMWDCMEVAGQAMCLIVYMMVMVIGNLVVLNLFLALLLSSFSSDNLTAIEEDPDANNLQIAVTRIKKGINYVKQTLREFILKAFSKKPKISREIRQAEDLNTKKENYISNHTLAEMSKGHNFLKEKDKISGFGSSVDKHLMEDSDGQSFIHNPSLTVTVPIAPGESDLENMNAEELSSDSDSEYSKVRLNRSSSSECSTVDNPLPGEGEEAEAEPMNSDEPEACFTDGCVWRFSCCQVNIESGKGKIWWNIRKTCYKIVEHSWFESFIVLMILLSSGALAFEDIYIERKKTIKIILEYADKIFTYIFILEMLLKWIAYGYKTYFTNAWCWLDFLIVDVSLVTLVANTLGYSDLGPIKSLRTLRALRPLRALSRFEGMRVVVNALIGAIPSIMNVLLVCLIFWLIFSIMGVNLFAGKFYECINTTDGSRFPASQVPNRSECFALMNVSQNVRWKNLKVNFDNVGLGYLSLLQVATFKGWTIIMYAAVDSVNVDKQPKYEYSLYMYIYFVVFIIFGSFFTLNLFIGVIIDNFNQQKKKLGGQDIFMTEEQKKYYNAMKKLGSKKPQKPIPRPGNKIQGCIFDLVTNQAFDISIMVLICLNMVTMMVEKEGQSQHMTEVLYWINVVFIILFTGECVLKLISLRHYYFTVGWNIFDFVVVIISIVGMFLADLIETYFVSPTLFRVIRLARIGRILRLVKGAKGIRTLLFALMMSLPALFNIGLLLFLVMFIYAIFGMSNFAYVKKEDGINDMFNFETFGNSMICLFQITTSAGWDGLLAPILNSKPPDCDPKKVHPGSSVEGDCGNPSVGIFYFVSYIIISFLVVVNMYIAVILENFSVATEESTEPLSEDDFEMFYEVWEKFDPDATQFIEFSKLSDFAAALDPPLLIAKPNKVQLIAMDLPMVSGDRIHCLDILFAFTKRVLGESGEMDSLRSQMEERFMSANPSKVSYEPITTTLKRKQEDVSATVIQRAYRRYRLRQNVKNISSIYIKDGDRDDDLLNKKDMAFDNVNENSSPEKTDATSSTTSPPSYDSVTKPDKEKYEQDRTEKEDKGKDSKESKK

For `NC(=O)N1c2ccccc2C=Cc2ccccc21` [Carbamazepine], in series [1] (Carbamazepine 200 mg qid), the “Cmax Free plasma” value was 4 to 12 µM and the Free fraction was 24%.
In the case of `Nc1nnc(-c2cccc(Cl)c2Cl)c(N)n1` [Lamotrigine], on Human Nav1.7, the “Human Nav1.7 % Inhibition” value is listed as 6%. In addition, in series [1] (Lamotrigine 200 mg bid), the “Cmax Free plasma” value was 5.8 µM and the Free fraction is 44%. In addition, the Clinical efficacy result in the series on trigeminal neuralgia is on record as “NO EFFICACY”.
